Measured values from patent US7511123B2, “Immuno-interactive fragments of the alpha-C subunit of inhibin” (Prince Henry's Institute of Medical Research, priority 1999, dated 2009).

Tests used:
As #128 = experiment: RIA (Assay 2): competition with iodinated inhibin for As #128; format: binding, sheep; settings: biotinylated peptides; 50% fall in binding of iodinated inhibin
Source text: (§1) This assay was used to determine which peptides compete with iodinated 30 kDa inhibin for As #41, #128 and #1989 (used in the original inhibin RIA, Lapphorn et al., 1989, supra) in a RIA format. This assay identifies those peptides that bind to inhibin-binding antibodies in the antiserum and provides a stricter affinity and specificity assessment in identifying the appropriate epitopes than that found with Assay 1. The competition between peptide and hr-inhibin (used as the standard) was assessed from their ED50 values. The RIA consisted of the competition of iodinated inhibin and either hr-inhibin reference preparation, individual peptides or pools from the 4 peptide regions, with As #41, #128 and in some instances, As #1989. The peptides/inhibin/iodinated inhibin and antisera (at a prescribed dilution) were incubated overnight at 4° C. using standard methodologies. The antibody-bound iodinated inhibin was immunoprecipitated with the addition of an anti-sheep IgG serum raised in goats and the radioactivity was measured in a gamma counter. The concentration of peptide that gives a 50% fall in binding of iodinated inhibin (ED50) was determined and this value was used to give a measure of the affinity of the peptide for the antiserum. This methodology consisted of determining the ED50 of the peptide in the RIA using iodinated human recombinant inhibin as tracer with either As #41, As #128 or As #1989 and graded doses of either hr-inhibin or peptide as described in Example 2.

As #41 [1] = experiment: RIA (Assay 2): competition with iodinated inhibin for As #41; format: binding, sheep; settings: biotinylated peptides; 50% fall in binding of iodinated inhibin
Source text: as §1

As #1989 = experiment: RIA (Assay 2): competition with iodinated inhibin for As #1989; format: binding, rabbit; settings: biotinylated peptides; 50% fall in binding of iodinated inhibin
Source text: as §1

As #41 [2] = experiment: Competitive 2-site assay (Assay 3), approach (b); format: binding, sheep; design: key to #41 2-site competitive assay Assay 3: +++++ major contribution; + minor contribution; settings: relative contribution
Source text: This assay was developed to establish the relative importance of the individual peptides and peptide pools (identified as epitopes in Assays 1 and 2) in the sandwich antibody format used in the IFMA with As #128 as capture antibody and As #41 as detection antibody. Two approaches (a and b) were considered, Approach (a) explores the cross-reaction of peptides with inhibin for the immobilized As #128 while Approach (b) assesses their cross-reaction with inhibin for As #41.
Approach (b). In this approach, the competition of peptides with the As #41 antiserum using the sandwich antibody format was assessed. Hr-Inhibin was initially incubated with the As #128 coated wells for 1 hour at room temperature. The biotinylated peptide pools and/or individual peptides were incubated together with iodinated As #41 for 1 hour and then added to the inhibin bound As #128 coated plates and incubated for 2 hours at room temperature. Plates were then washed to remove any unbound material and the resulting activity was measured in the gamma counter.

PO-12 [3] = experiment: Solid phase binding of Set 2 peptides to PO-12; design: species or system mouse; key: +++; ΦΦΦ strong effect; +, Φ weak effect; settings: Set 2 biotinylated peptides 24 micromoles/L
Description: (§2) The binding of the 41 biotinylated peptides as set forth in Table 7 (peptide set 2) to the mouse monoclonal antibodies (PO# series) was assessed as follows:
(§3) a) Assay 1 (solid phase assay). The assay was undertaken as outlined in assay 1 of Example 2. Biotinylated peptides (24 micromoles/L) were initially bound to streptavidin-coated plates. Mab (at an appropriate dilution to give a detectable response, 1:1000, 1:10000 dilution of the culture medium) was then added and incubated for 1.5 hr. The amount of bound Mab was determined using horseradish peroxidase-bound anti-mouse IgG serum and enzyme activity detected at 450-630 nm using an ELISA plate reader.

PO-12 [4] = experiment: RIA of Set 2 peptides with PO-12; format: binding, mouse; design: key: ΦΦΦ strong effect; +, Φ weak effect; a) limited binding; settings: Set 2 biotinylated peptides 0.8 and 0.08 micromoles/L
Description: (§4) The binding of the 41 biotinylated peptides as set forth in Table 7 (peptide set 2) to the mouse monoclonal antibodies (PO# series) was assessed as follows: b) Assay 2 (radioimrnunoassay, RIA) using iodinated human inhibin A as tracer. Mabs (at an appropriate dilution, see above) were incubated with iodinated human recombinant inhibin in the presence of biotinylated peptides (0.8 and 0.08 micromoles/L final concentration) overnight at room temperature.

PO-14 [5] = experiment: RIA of Set 2 peptides with PO-14; format: binding, mouse; design: key: ΦΦΦ strong effect; +, Φ weak effect; a) limited binding; settings: Set 2 biotinylated peptides 0.8 and 0.08 micromoles/L
Description: as §4

PO-14 [6] = experiment: Solid phase binding of Set 2 peptides to PO-14; design: species or system mouse; key: +++; ΦΦΦ strong effect; +, Φ weak effect; settings: Set 2 biotinylated peptides 24 micromoles/L
Description: as §2, §3

As #41 [7] = experiment: Solid phase assay (Assay 1): biotinylated peptides binding to As #41; design: species or system sheep; key: +++++ major contribution; + minor contribution; settings: relative contribution
Description: This assay is a broad screen of the binding of the 31 biotinylated peptides to As #41 and #128 as recommended by Chiron Mimotopes.
The biotinylated peptides were initially bound to streptavidin-coated 96-well plates (2 hours at room temperature), antiserum #41 or #128 was then added (2 hours room temperature) to bind to the peptides. Detection of antiserum binding was assessed by a further incubation with an anti-ovine IgG serum labeled with the enzyme, horseradish peroxidase. The enzyme activity was assessed by conversion of a colorless substrate to a colored product that is detected in a spectrophotometer. The enzyme activity measured was proportional to the extent of the binding of the peptides.

Row | Substance | PO-12 SPB (PO-12 [3]) | PO-14 SPB (PO-14 [6]) | #41 Antibody screen Assay 1 (As #41 [7]) | As#128 ED50 (As #128) | As#41 ED50 (As #41 [1]) | As#1989 ED50 (As #1989) | #41 2-site competitive assay Assay 3 (As #41 [2]) | PO-12 RIA (PO-12 [4]) | PO-14 RIA (PO-14 [5])
1 | SGSG ETVPNLLTQHCACI [Peptide 33] | – | – | – | 2500 nM | 4000 nM | >2500 nM | + | – | –
2 | SGSG DGGYSFKYETVPNL [Peptide 31] | – | – | + | 1400 nM | 2400 nM | >2500 nM | – | – | –
3 | SGSG PYSLLPGAQPCCAA [Peptide 24] | +++ | +++ | – | 900 nM | 6200 nM | >2500 nM | – | ΦΦΦ | ΦΦΦ

Further lines, with some results ahead:

Row | PO-12 SPB (PO-12 [3]) | PO-14 SPB (PO-14 [6]) | #41 Antibody screen Assay 1 (As #41 [7]) | Substance | As#128 ED50 (As #128) | As#41 ED50 (As #41 [1]) | As#1989 ED50 (As #1989) | #41 2-site competitive assay Assay 3 (As #41 [2]) | PO-12 RIA (PO-12 [4]) | PO-14 RIA (PO-14 [5])
4 | +++ | +++ | – | SGSG QPCCAALPGTMRPL [Peptide 26] | 625 nM | 1000 nM | >2500 nM | – | ΦΦΦ | ΦΦΦ
5 | +++ | +++ | – | SGSG LPGAQPCCAALPGT [Peptide 25] | 2000 nM | 5000 nM | >2500 nM | – | ΦΦΦ | ΦΦΦ
